Measurements: publication PMC7663372, “Brain Distribution of Dual ABCB1/ABCG2 Substrates Is Unaltered in a Beta-Amyloidosis Mouse Model” (International Journal of Molecular Sciences, 2020)
Like-named read-outs stand apart in the source and are kept apart here.

What was measured:
ABCB1 at the BBB = conditions: cited from earlier work
ABCG2 at the mouse BBB [1] = biological target: T1, ABCG2 at the mouse BBB (Mus musculus, UniProt Q7TMS5); conditions: for percentage increase in Kp,brain following ABCG2 inhibition: Ko143 5 mg/kg vs vehicle, tariquidar 12 mg/kg, hippocampus, cortex; for change in Kp,brain after partial ABCG2 inhibition: Ko143 5 mg/kg
T1 sequence (Q7TMS5 1-657): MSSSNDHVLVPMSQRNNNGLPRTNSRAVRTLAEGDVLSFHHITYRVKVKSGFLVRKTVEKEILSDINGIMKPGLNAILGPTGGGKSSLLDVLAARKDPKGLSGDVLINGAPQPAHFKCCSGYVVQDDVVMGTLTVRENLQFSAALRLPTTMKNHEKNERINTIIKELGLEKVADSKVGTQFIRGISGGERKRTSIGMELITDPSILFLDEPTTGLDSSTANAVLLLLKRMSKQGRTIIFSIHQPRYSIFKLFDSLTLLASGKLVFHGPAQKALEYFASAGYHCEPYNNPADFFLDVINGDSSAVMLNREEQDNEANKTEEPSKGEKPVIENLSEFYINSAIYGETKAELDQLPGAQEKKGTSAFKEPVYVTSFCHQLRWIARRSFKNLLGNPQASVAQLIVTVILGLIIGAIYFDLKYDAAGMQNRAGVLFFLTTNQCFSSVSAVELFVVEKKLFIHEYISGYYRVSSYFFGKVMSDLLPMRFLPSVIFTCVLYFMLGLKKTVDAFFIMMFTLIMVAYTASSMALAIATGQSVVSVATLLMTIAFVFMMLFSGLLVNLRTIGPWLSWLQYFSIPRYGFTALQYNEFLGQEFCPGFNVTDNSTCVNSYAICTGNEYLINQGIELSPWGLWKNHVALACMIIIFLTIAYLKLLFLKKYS

ABCG2 at the mouse BBB [2] = biological target: T1, ABCG2 at the mouse BBB; parameters: Two PET imaging approaches for assessing the activity of ABCG2 at the mouse BBB were performed; from tissue; host or cells: blood-brain barrier (brain capillary endothelium) of living female APP/PS1-21 and wild-type C57BL/6J mice; method as in PMID 22828996; conditions: Abcb1a/b(-/-) mice pretreated with 15 mg/kg Ko143; cited from earlier work
ABCB1 [3] = conditions: cited from earlier work
ABCB1 [4] = conditions: cited from earlier work; remark: listed apart in the source
ABCB1 [5] = system: ABCB1; parameters: method as in PMID 26940368; conditions: read-out: IC50 for in vitro inhibition of its own transport by ABCB1; cited from earlier work
ABCG2 = system: ABCG2; parameters: method as in PMID 26940368; conditions: read-out: IC50 for in vitro inhibition of its own transport by ABCG2; cited from earlier work

In the case of `CNC(=O)C(CCN1CCC(O)(c2ccc(Cl)cc2)CC1)(c1ccccc1)c1ccccc1` [[^11C]N-desmethyl-loperamide], the “increase in brain distribution relative to wild-type mice” value (ABCB1 at the BBB; heterozygous Abcb1a/b(+/-) knockout mice) is listed as 1.1 fold and the “increase in brain distribution relative to wild-type mice” value (ABCB1 at the BBB; homozygous Abcb1a/b(-/-) knockout mice) is listed as 2.8 fold.

In the case of `COc1cc2c(cc1OC)CN(CCc1ccc(NC(=O)c3cc(OC)c(OC)cc3NC(=O)c3cnc4ccccc4c3)cc1)CC2` [[^11C]tariquidar], the “percentage increase in Kp,brain following ABCG2 inhibition” value (ABCG2 at the mouse BBB [1]; APP/PS1-21 mice, cerebellum) is reported as 36–52%, the “change in Kp,brain after partial ABCG2 inhibition” value (ABCG2 at the mouse BBB [1]; cerebellum, APP/PS1-21 mice) is reported as “significantly increased” and the “change in Kp,brain after partial ABCG2 inhibition” value (ABCG2 at the mouse BBB [1]; cerebellum, wild-type mice) is reported as “not in wild-type mice”. For the same compound, the “change in Kp,brain after partial ABCG2 inhibition” value (ABCG2 at the mouse BBB [1]; hippocampus and cortex, both mouse strains) was “significantly higher”, the “percentage increase in Kp,brain following ABCG2 inhibition” value (ABCG2 at the mouse BBB [1]; wild-type mice, cerebellum) was 26–41% and the “maximum brain uptake, Kp,brain” value (ABCG2 at the mouse BBB [2]) was “approximately 15”.

For `CN(C)C(=O)C(CCN1CCC(O)(c2ccc(Cl)cc2)CC1)(c1ccccc1)c1ccccc1` [loperamide], the “change in brain distribution in triple transgenic AD mice (APPswe, PS-1M146V, tauP301L)” value (ABCB1 [3]) is given as “no changes”.

For `Cc1nc2n(c(=O)c1CCN1CCC(c3noc4cc(F)ccc34)CC1)CCCC2O` (stereo not drawn) [paliperidone], the “difference in Kp,uu,brain between tg-APPArcSwe and age-matched control mice” value (ABCB1 [4]) is given as “no differences”.

In the case of `COc1cc2c(cc1OC)CN(CCc1ccc(NC(=O)c3cc(OC)c(OC)cc3NC(=O)c3cnc4ccccc4c3)cc1)CC2` [tariquidar], the IC50 (ABCB1 [5]) is given as 17.1 nM and the IC50 (ABCG2) is given as 310 nM.
